Key:
Test in all cases: relative viability (nuclei count vs DMSO), 5 days (fraction); higher = more cells survive
[1] = compound: COC1=CC=C(C=C1)CN2C=CC3=C2C=C(C=C3)C(=O)NO + C[C@]1(O)C[C@@H](c2nc(-c3ccc4ccc(-c5ccccc5)nc4c3)c3c(N)nccn32)C1 [Linsitinib] (partner 1 µM)
How it was run: (§1)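 Five library-drug doses in √10 steps were combined with a fixed anchor-drug dose, or a single drug was given alone, by pin tool to lung cancer cell lines in 1536-well plates the day after seeding. Nuclei were stained and counted after 5 days. Relative viability is the nuclei count in treated wells over that in vehicle wells, taken as the median of duplicate plates.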

Veliparib + Crizotinib = compound: C[C@]1(c2nc3c(C(N)=O)cccc3[nH]2)CCCN1 [Veliparib] + C[C@@H](Oc1cc(-c2cnn(C3CCNCC3)c2)cnc1N)c1c(Cl)ccc(F)c1Cl [Crizotinib] (partner 1 µM)
How it was run: as §1

Veliparib + Pemetrexed = compound: C[C@]1(c2nc3c(C(N)=O)cccc3[nH]2)CCCN1 [Veliparib] + Nc1nc2[nH]cc(CCc3ccc(C(=O)N[C@@H](CCC(=O)O)C(=O)O)cc3)c2c(=O)[nH]1 [Pemetrexed] (partner 0.2 µM)
How it was run: as §1

Veliparib + Olaparib = compound: C[C@]1(c2nc3c(C(N)=O)cccc3[nH]2)CCCN1 [Veliparib] + O=C(c1cc(Cc2n[nH]c(=O)c3ccccc23)ccc1F)N1CCN(C(=O)C2CC2)CC1 [Olaparib] (partner 8 µM)
How it was run: as §1

Cell Line	relative viability ([1]; first compound 0.08 µM)	relative viability ([1]; first compound 0.253 µM)	relative viability ([1]; first compound 0.8 µM)	relative viability ([1]; first compound 2.53 µM)	relative viability ([1]; first compound 8 µM)	relative viability (Veliparib + Crizotinib; first compound 0.02 µM)	relative viability (Veliparib + Crizotinib; first compound 0.06325 µM)	relative viability (Veliparib + Crizotinib; first compound 0.2 µM)	relative viability (Veliparib + Crizotinib; first compound 0.6325 µM)	relative viability (Veliparib + Crizotinib; first compound 2 µM)	relative viability (Veliparib + Pemetrexed; first compound 0.02 µM)	relative viability (Veliparib + Pemetrexed; first compound 0.06325 µM)	relative viability (Veliparib + Pemetrexed; first compound 0.2 µM)	relative viability (Veliparib + Pemetrexed; first compound 0.6325 µM)	relative viability (Veliparib + Pemetrexed; first compound 2 µM)	relative viability (Veliparib + Olaparib; first compound 0.02 µM)	relative viability (Veliparib + Olaparib; first compound 0.06325 µM)	relative viability (Veliparib + Olaparib; first compound 0.2 µM)	relative viability (Veliparib + Olaparib; first compound 0.6325 µM)	relative viability (Veliparib + Olaparib; first compound 2 µM)
201T	1.04	1.01	1.13	1.06	1.03	1.03	0.978	0.964	0.992	0.997	0.345	0.334	0.355	0.352	0.362	0.809	0.906	0.852	0.824	0.83
LK-2		0.45	0.579	0.515	0.533		0.179	0.149	0.232	0.183	0.324	0.307	0.311	0.203	0.299	0.696	0.629	0.659	0.757	0.85
A-427		1.08	1.11	1.16	1.1	0.884	0.837	0.864	0.83	0.836	1	0.966	0.946	1.03	1.04	0.575	0.697	0.78	0.656	0.737
LCLC-97TM1		0.212	0.225	0.206	0.156	0.248	0.349	0.354		0.234	0.19	0.173	0.177	0.141	0.189	0.433	0.475	0.439	0.233	0.527
HOP-62	0.681	1.06	1.01	0.924	1.04	0.981	0.795	0.836	0.866	0.933	0.311	0.376	0.365	0.329	0.373		0.347	0.364	0.342	0.383
NCI-H1915	1.05	1.1	1.07	1.09	1.09	0.866	0.869	0.803	0.754	0.771	0.532	0.463	0.537	0.491	0.487	0.252	0.238	0.243	0.251	0.254
CAL-12T	0.695	0.917	0.756	0.76	0.786	0.702	0.542	0.589	0.616	0.645	1.23	1.06	1.32	1.09	1.3	0.723	0.727	0.696	0.649	0.712
NCI-H1437	0.847	1.1	1.01	1	1.13	0.902	0.929	0.9	0.81	0.834	0.31	0.276	0.325	0.356	0.34	0.688	0.624	0.616	0.653	0.661
UMC-11	0.891	0.974	1.06	0.959	0.938	0.549	0.654	0.595	0.547	0.577	0.931	0.749	0.878	0.804	0.759	0.627	0.336	0.485	0.359	0.438
HCC-44	0.568	0.69	0.681	0.705	0.637	0.834	0.708	0.85	0.74	0.835	0.606	0.656	0.655	0.59	0.63	1.02	0.924	0.975	0.932	1

From the supplement of paper PMC10307832
